Experiment [1] concerns the target Kappa-type opioid receptor (Mus musculus) (UniProt P33534). Briefly: Displacement of [125I]dynorphin from kappa opioid receptor in BALB/c mouse brain membrane at 5 uM by liquid scintillation counting relative to control. It is filed as cell membranes. In general terms: Displacement assays read how much labelled ligand stays bound in the presence of the test substance.

Experiment [2] has as its target Mu-type opioid receptor (Mus musculus) (UniProt P42866). The settings on record: BALB/c, Brain, Membrane, at 5 µM.
Description: Displacement of [3H]DAMGO from mu opioid receptor in BALB/c mouse brain membrane at 5 uM by liquid scintillation counting relative to control
Experiment [3] addresses Kappa-type opioid receptor (Mus musculus, UniProt P33534). Briefly: Displacement of [125I]dynorphin from kappa opioid receptor in BALB/c mouse brain membrane by liquid scintillation counting. It is filed as cell membranes.
The target of experiment [4] is Kappa-type opioid receptor (Rattus norvegicus) (UniProt P34975). Briefly: Agonist activity at kappa opioid receptor in rat C6 cells assessed as induction of ERK1/2 phosphorylation at 40 uM after 10 min by Western blot analysis in presence of KOP antagonist norBNI. It is filed as functional, cell-based. On the technique in general: Immunoblotting shows a protein as a band on a membrane.

pIC50: −log10 of the molar value. Calls of active or inactive are those of the source. The calls are words filed in the database; no cut-off is given here.

Sequence of Mu-type opioid receptor (Mus musculus) (P42866 whole entry): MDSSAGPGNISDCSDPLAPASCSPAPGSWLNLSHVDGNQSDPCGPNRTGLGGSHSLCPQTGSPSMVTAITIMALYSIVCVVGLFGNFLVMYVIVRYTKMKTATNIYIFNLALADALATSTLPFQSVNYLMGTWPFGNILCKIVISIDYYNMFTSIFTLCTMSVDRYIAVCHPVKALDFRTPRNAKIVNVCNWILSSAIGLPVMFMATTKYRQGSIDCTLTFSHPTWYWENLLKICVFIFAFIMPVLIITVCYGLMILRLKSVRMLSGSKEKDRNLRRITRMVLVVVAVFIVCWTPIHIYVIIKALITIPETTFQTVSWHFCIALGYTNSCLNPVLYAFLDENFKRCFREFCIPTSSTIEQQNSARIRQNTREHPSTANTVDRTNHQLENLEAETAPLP
Sequence of Kappa-type opioid receptor (Mus musculus) (P33534 whole entry): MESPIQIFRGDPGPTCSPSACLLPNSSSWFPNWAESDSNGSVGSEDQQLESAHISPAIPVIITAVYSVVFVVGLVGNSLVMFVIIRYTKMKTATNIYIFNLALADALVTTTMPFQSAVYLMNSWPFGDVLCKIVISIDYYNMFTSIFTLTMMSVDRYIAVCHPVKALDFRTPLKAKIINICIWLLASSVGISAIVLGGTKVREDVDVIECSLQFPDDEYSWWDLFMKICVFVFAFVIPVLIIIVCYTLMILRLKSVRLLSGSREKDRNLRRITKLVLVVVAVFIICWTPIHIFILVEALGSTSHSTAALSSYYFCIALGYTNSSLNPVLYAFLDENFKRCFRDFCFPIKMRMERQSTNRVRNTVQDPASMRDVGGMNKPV
Sequence of Kappa-type opioid receptor (Rattus norvegicus) (P34975 whole entry): as the sequence (P33534 whole entry) above, with D11E, S17A, S51P, A308V counted along it
Sequence of Kappa-type opioid receptor (P33534 whole entry): as the sequence (P33534 whole entry) above

Consider `COc1cccc2c1OCc1cc3c(cc1N(c1ccccc1)C2)OCO3`, for which the residual activity came out at 101% in experiment [1] and 78% in experiment [2].
Regarding `COc1ccccc1N1Cc2cccc(OC)c2OCc2ccccc21`, the residual activity was 119% in experiment [1] and 89% in experiment [2].
For `COc1ccc(N2Cc3ccccc3OCc3ccccc32)cc1` the same measures were 81% and 86%.
For `c1ccc(N2Cc3ccccc3OCc3ccccc32)cc1` the same measures were 87% and 80%.
Consider `COc1ccc2c(c1)COc1ccccc1CN2c1ccccc1`, for which the residual activity turned out to be 29% in experiment [1] and 99% in experiment [2]. In experiment [3], this compound gave a pIC50 of 5.66. Further, in experiment [4], the outcome was inactive.
With `COc1ccc(N2Cc3cccc(OC)c3OCc3ccccc32)cc1`, the residual activity stood at 81% in experiment [1] and 90% in experiment [2].
For `COc1ccc(N2Cc3cccc(OC)c3OCc3cc4c(cc32)OCO4)cc1` the same measures were 101% and 138%.

One may read the residual activity as the signal under treatment as a percentage of the control signal. What is called pIC50 is the IC50 on a negative log10 scale, so that one unit is a factor of ten. Low values mean a large IC50, high ones a small IC50.

The values are drawn from ChEMBL document CHEMBL1770103, “Synthesis and biological evaluation of dibenz[b,f][1,5]oxazocine derivatives for agonist activity at κ-opioid receptor” (Eur J Med Chem, 2011).
